Results published in patent EP4603105A1, “PHARMACEUTICAL COMPOSITION CONTAINING CYCLIC COMPOUND HAVING SELECTIVE KRAS INHIBITORY EFFECT AGAINST HRAS AND NRAS” (CHUGAI SEIYAKU KABUSHIKI KAISHA, priority 2022, dated 2024).
Where two headings read alike, the source gives them in different places.

Tests used:
HRAS wild-type protein = HRAS wild-type protein (Homo sapiens, UniProt P01112); assay: Binding to HRAS by surface plasmon resonance (SPR), KD and KD ratio to KRAS
Method in brief: (§1)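 GDP-bound biotin-Avi RAS captured at ~100–300 RU, 30°C, pH 7.4 HBS containing 10 µM GDP, 10 mM MgCl2, 1 mM DTT, 0.01% Tween 20 and 4% DMSO. KD by 1:1 fitting.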

[1] = biological target: GDP-bound NRAS wild-type protein (Homo sapiens, UniProt P01111); assay: Binding to NRAS by surface plasmon resonance (SPR), KD and KD ratio to KRAS
Chain of GDP-bound NRAS wild-type protein (P01111 whole entry): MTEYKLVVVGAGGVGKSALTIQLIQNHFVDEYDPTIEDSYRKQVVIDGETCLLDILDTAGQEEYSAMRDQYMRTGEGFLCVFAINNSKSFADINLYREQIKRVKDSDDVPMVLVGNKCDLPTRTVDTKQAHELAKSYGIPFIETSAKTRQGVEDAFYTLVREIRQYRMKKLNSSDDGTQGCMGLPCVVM
Method in brief: as §1

[2] = tested on: human lung cancer strain NCI-H441; assay: NCI-H441 cell proliferation inhibitory activity (CellTiter-Glo, 4 days); assay type: cell-based; conditions: read-out: NCl-H441 IC50
Method in brief: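 Readout: […] after the ATP-based reagent. Compound: serial dilutions in dimethyl sulfoxide.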

[3] = biological target: GDP-bound KRAS wild-type protein (Homo sapiens, UniProt P01116); assay: Binding to KRAS by surface plasmon resonance (SPR), dissociation constant KD
Chain of GDP-bound KRAS wild-type protein (P01116 1-188 isoform P01116-2): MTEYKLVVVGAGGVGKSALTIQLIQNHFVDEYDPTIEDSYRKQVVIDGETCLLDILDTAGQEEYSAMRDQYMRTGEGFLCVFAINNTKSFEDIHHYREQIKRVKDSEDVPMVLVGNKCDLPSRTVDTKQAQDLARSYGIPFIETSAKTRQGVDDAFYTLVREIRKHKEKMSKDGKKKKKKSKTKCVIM
Method in brief: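 SPR, 30°C: Avi-biotin RAS·GDP captured via Biotin CAPture (~100–300 RU); running buffer HBS pH 7.4, 1 mM DTT, 10 mM MgCl2, 0.01% Tween 20, 10 µM GDP, 4% DMSO. Single-cycle kinetics, 100 µL/min, 75 s injections; 1:1 model → KD.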

[4] = ratio of KD for HRAS wild-type protein to KD for KRAS
[5] = ratio of KD for GDP-bound NRAS wild-type protein to KD for KRAS
[6] = ratio of KD with respect to HRAS wild-type protein to KD with respect to KRAS
[7] = ratio of KD with respect to GDP-bound NRAS wild-type protein to KD with respect to KRAS
[8] = 50% proliferation inhibitory concentration, four days
[9] = Single Cycle Kinetics, 1:1 binding model

Chain of HRAS wild-type protein (P01112 whole entry): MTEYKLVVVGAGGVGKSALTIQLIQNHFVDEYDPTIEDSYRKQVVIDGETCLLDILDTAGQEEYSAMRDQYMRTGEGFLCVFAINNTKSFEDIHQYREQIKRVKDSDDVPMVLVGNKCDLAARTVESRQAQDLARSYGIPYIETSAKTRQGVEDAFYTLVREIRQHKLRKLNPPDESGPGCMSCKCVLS

SMILES	HRAS /KRAS (HRAS wild-type protein; [4])	NRAS /KRAS [1, 5]	IC50 ([2]; NCI-H441 cells, 4 days) [nM]	Kd ([3]; Single Cycle Kinetics) [nM]	HRAS /KRAS (HRAS wild-type protein; [6])	NRAS /KRAS [1, 7]	IC50 [2, 8] [nM]	Kd [3, 9] [nM]	Kd ([3]; 1:1 binding model) [nM]
CCO[C@@H]1C[C@H]2C(=O)NC3(CC(C)(C)C3)C(=O)N(C)[C@@H](C3CCCC3)C(=O)N(C)[C@H](C(=O)N(C)C)CC(=O)N(C)[C@@H]([C@H](C)OC)C(=O)N[C@@H]([C@@H](C)CC)C(=O)N(C)CC(=O)N(C)[C@H]3C/C=C\CCN(C3=O)[C@@H](Cc3ccc(C(F)(F)F)cc3)C(=O)N(C)CC(=O)N[C@@H](CCc3ccc(C(F)(F)F)c(OC)c3)C(=O)N2C1 [PP3167]	A (a compound having 10 or more and less than 20 is denoted as A)	B (a compound having 3 or more and less than 10 is denoted as B)	9.8	0.1	–	–	–	–	–
CCO[C@@H]1C[C@H]2C(=O)NC3(CCC3)C(=O)N(C)[C@@H](C3CCCC3)C(=O)N(C)[C@H](C(=O)N(C)C)CC(=O)N(C)[C@@H](CC3CC3)C(=O)N[C@@H]([C@@H](C)CC)C(=O)N(C)CC(=O)N(C)[C@H]3C/C=C\CCN(C3=O)[C@@H](Cc3ccc(C)cc3)C(=O)N(C)CC(=O)N[C@@H](CCc3cc(F)c(C(F)(F)F)c(F)c3)C(=O)N2C1 [PP1407]	–	–	–	–	A (a compound having 10 or more and less than 20 is denoted as A)	A (a compound having 10 or more and less than 20 is denoted as A)	18.7	0.074	–
CCC(CC)[C@H]1C(=O)N(C)[C@H](C(=O)N(C)C)CC(=O)N(C)[C@@H](CC2CC2)C(=O)N[C@@H]([C@@H](C)CC)C(=O)N(C)CC(=O)N(C)[C@H]2C/C=C\CCN(C2=O)[C@@H](CC2CCC(F)(F)CC2)C(=O)N(C)CC(=O)N[C@@H](CCc2ccc(C(F)(F)F)c(OC)c2)C(=O)N2C[C@@H](C)C[C@H]2C(=O)NC2(CC(C)(C)C2)C(=O)N1C [PP2494]	A (a compound having 10 or more and less than 20 is denoted as A)	A (a compound having 10 or more and less than 20 is denoted as A)	39.6	–	–	–	–	–	1.8
CC[C@H](C)[C@@H]1NC(=O)[C@H](CC2CC2)N(C)C(=O)C[C@@H](C(=O)N(C)C)N(C)C(=O)[C@H](C2CCCC2)N(C)C(=O)C2(CCCC2)NC(=O)[C@@H]2CCCN2C(=O)[C@H](CCc2cc(F)c(C(F)(F)F)c(F)c2)NC(=O)CN(C)C(=O)[C@H](Cc2ccc(C(F)(F)F)cc2)N2C[C@H](C)[C@H](C)C[C@@H](C2=O)N(C)C(=O)CN(C)C1=O [PP1368]	–	–	–	–	B (a compound having 3 or more and less than 10 is denoted as B)	A (a compound having 10 or more and less than 20 is denoted as A)	2.9	0.061	–
CCC[C@H]1C(=O)N[C@@H]([C@@H](C)CC)C(=O)N(C2CC2)CC(=O)N(C)[C@H]2C/C=C\CCN(C2=O)[C@@H](CC2CCC(F)(F)CC2)C(=O)N(C)CC(=O)N[C@@H](CCc2ccc(Cl)c(Cl)c2)C(=O)N2C[C@H](OCC)C[C@H]2C(=O)NC2(CC(C)(C)C2)C(=O)N(C)[C@@H](C2CCCC2)C(=O)N(C)[C@H](C(=O)N(C)C)CC(=O)N1C [PP2567]	A (a compound having 10 or more and less than 20 is denoted as A)	A (a compound having 10 or more and less than 20 is denoted as A)	102	–	–	–	–	–	1.9
CCO[C@@H]1C[C@H]2C(=O)NC3(CCC3)C(=O)N(C)[C@@H](C3CCCC3)C(=O)N(C)[C@H](C(=O)N(C)C)CC(=O)N(C)[C@@H](Cc3ccc(Cl)c(Cl)c3)C(=O)N[C@@H]([C@@H](C)CC)C(=O)N(C)CC(=O)N(C)[C@H]3CCCCCN(C3=O)[C@@H](Cc3ccc(C(F)(F)F)cc3)C(=O)N(C)CC(=O)N[C@@H](CCc3cc(F)c(C(F)(F)F)c(F)c3)C(=O)N2C1 [PP1174]	–	–	–	–	B (a compound having 3 or more and less than 10 is denoted as B)	B (a compound having 3 or more and less than 10 is denoted as B)	85.2	1	–
C#CC[C@H]1C(=O)N[C@@H]([C@@H](C)CC)C(=O)N(C)CC(=O)N(C)[C@H]2C/C=C\CCN(C2=O)[C@@H](Cc2ccc(C(F)(F)F)cc2)C(=O)N(C)CC(=O)N[C@@H](CCc2ccc(C(F)(F)F)c(OC)c2)C(=O)N2C[C@H](OCC)C[C@H]2C(=O)N(C)C2(CCC2)C(=O)N(C)[C@@H](C2CCCC2)C(=O)N(C)[C@H](C(=O)N(C)C)CC(=O)N1C [PP3230]	A (a compound having 10 or more and less than 20 is denoted as A)	A (a compound having 10 or more and less than 20 is denoted as A)	2.6	0.03	–	–	–	–	–
CCC(CC)[C@H]1C(=O)N(C)[C@H](C(=O)N(C)C)CC(=O)N(C)[C@@H](COC)C(=O)N[C@@H]([C@@H](C)CC)C(=O)N(C)CC(=O)N(C)[C@H]2C/C=C\CCN(C2=O)[C@@H](CC2CCC(F)(F)CC2)C(=O)N(C)CC(=O)N[C@@H](CCc2ccc(C(F)(F)F)c(Cl)c2)C(=O)N2C[C@@H](C)C[C@H]2C(=O)NC2(CC(C)(C)C2)C(=O)N1C [PP2454]	A (a compound having 10 or more and less than 20 is denoted as A)	AA (a compound having 20 or more is denoted as AA)	80.2	–	–	–	–	–	1.2
CCO[C@@H]1C[C@H]2C(=O)NC3(CC(C)(C)C3)C(=O)N(C)[C@@H](C3CCCC3)C(=O)N(C)[C@H](C(=O)N(C)CC)CC(=O)N(C)[C@@H](COC)C(=O)N[C@@H]([C@@H](C)CC)C(=O)N(C)CC(=O)N(C)[C@H]3C/C=C\CCN(C3=O)[C@@H](Cc3ccc(C)cc3)C(=O)N(C)CC(=O)N[C@@H](CCc3ccc(C(F)(F)F)c(Cl)c3)C(=O)N2C1 [PP2507]	A (a compound having 10 or more and less than 20 is denoted as A)	AA (a compound having 20 or more is denoted as AA)	8.9	–	–	–	–	–	0.061
CCO[C@@H]1C[C@H]2C(=O)NC3(CCC3)C(=O)N(C)[C@@H](C(CC)CC)C(=O)N(C)[C@H](C(=O)N3CCCC3)CC(=O)N(C)[C@@H](COC)C(=O)N[C@@H]([C@@H](C)CC)C(=O)N(C)CC(=O)N(C)[C@H]3C/C=C\CCN(C3=O)[C@@H](CC3CCCCC3)C(=O)N(C)CC(=O)N[C@@H](CCc3cc(F)c(C(F)(F)F)c(F)c3)C(=O)N2C1 [PP1438]	–	–	–	–	A (a compound having 10 or more and less than 20 is denoted as A)	AA (a compound having 20 or more is denoted as AA)	89.4	0.55	–
CC[C@H](C)[C@@H]1NC(=O)[C@H](CC)N(C)C(=O)C[C@@H](C(=O)N(C)C)N(C)C(=O)[C@H](C2CCCC2)N(C)C(=O)C2(CCC2)NC(=O)[C@@H]2C[C@@H](C(F)(F)F)CN2C(=O)[C@H](CCc2cc(F)c(C(F)(F)F)c(F)c2)NC(=O)CN(C)C(=O)[C@H](Cc2ccc(C(F)(F)F)cc2)N2CC/C=C\C[C@@H](C2=O)N(C)C(=O)CN(C)C1=O [PP1133]	–	–	–	–	A (a compound having 10 or more and less than 20 is denoted as A)	A (a compound having 10 or more and less than 20 is denoted as A)	16.5	0.05	–
CCC[C@H]1C(=O)N[C@@H]([C@@H](C)CC)C(=O)N(C)CC(=O)N(C)[C@H]2C/C=C\CCN(C2=O)[C@@H](Cc2ccc(C(F)(F)F)cc2)C(=O)N(C)CC(=O)N[C@@H](CCc2ccc(C(F)(F)F)c(OC)c2)C(=O)N2CC3(CC3)C[C@H]2C(=O)NC2(CCC2)C(=O)N(C)[C@@H](C(CC)CC)C(=O)N(C)[C@H](C(=O)N(C)C)CC(=O)N1C [PP3408]	A (a compound having 10 or more and less than 20 is denoted as A)	AA (a compound having 20 or more is denoted as AA)	12.8	0.32	–	–	–	–	–
CCOC[C@H]1C(=O)N[C@@H]([C@@H](C)CC)C(=O)N(C)CC(=O)N(C)[C@H]2C/C=C\CCN(C2=O)[C@@H](Cc2ccc(C)cc2)C(=O)N(C)CC(=O)N[C@@H](CCc2cc(F)c(C(F)(F)F)c(F)c2)C(=O)N2C[C@H](OCC)C[C@H]2C(=O)NC2(CC(C)(C)C2)C(=O)N(C)[C@@H](C2CCCC2)C(=O)N(C)[C@H](C(=O)N(C)CC)CC(=O)N1C [PP2404]	A (a compound having 10 or more and less than 20 is denoted as A)	A (a compound having 10 or more and less than 20 is denoted as A)	4.1	–	–	–	–	–	0.09
CC[C@H](C)[C@@H]1NC(=O)[C@H](CC)N(C)C(=O)C[C@@H](C(=O)N(C)C)N(C)C(=O)[C@H](C2CCCC2)N(C)C(=O)C2(CCC2)NC(=O)[C@@H]2CCN2C(=O)[C@H](CCc2cc(F)c(C(F)(F)F)c(F)c2)NC(=O)CN(C)C(=O)[C@H](Cc2ccc(C(F)(F)F)cc2)N2CC/C=C\C[C@@H](C2=O)N(C)C(=O)CN(C)C1=O [PP1139]	–	–	–	–	A (a compound having 10 or more and less than 20 is denoted as A)	A (a compound having 10 or more and less than 20 is denoted as A)	297	0.43	–
CCC[C@H]1C(=O)N[C@@H]([C@@H](C)CC)C(=O)N2CCC[C@H]2C(=O)N(C)[C@H]2C/C=C\CCN(C2=O)[C@@H](Cc2ccc(C)cc2)C(=O)N(C)CC(=O)N[C@@H](CCc2ccc(C(F)(F)F)c(OC)c2)C(=O)N2C[C@@H](C)C[C@H]2C(=O)N(C)C2(CCC2)C(=O)N(C)[C@@H](C2CCCC2)C(=O)N(C)[C@H](C(=O)N(C)C)CC(=O)N1C [PP2368]	A (a compound having 10 or more and less than 20 is denoted as A)	A (a compound having 10 or more and less than 20 is denoted as A)	4.1	–	–	–	–	–	0.045
